Measurements from paper PMC10553834, “Differentiating the roles of Mycobacterium tuberculosis substrate binding proteins, FecB and FecB2, in iron uptake” (PLOS Pathogens, 2023).

Target: FecB E339S (Mycobacterium tuberculosis, UniProt O53291, E339S)
Format: binding

carboxymycobactin [apo-cMB]
Fold-decrease: ~1.7 | Kd: 4.8 ± 0.3 µM
